Test results reported in the NIST ThermoML archive (doi:10.1016/j.fluid.2015.04.019).
Numbers after ± are expanded uncertainties.

Details: 101.33 kPa, Liquid, Vibrating tube method

Row | Structure (SMILES) | mass density (293.15 K) | mass density (313.15 K)
1 | CCCCOCCO [2-butoxyethan-1-ol] | 900.64 ± 0.15 kg/m3 | 883.8 ± 0.15 kg/m3
2 | CCCCCCCC [octane] | 702.64 ± 0.32 kg/m3 | 686.39 ± 0.32 kg/m3
